# From patent US9878986B2, “Compounds for selective histone deacetylase inhibitors, and pharmaceutical composition comprising the same” (CHONG KUN DANG PHARMACEUTICAL CORP., priority 2013, dated 2018)
# Test system: RPMI 8226 cells
# Test: Combination index for combination treatment with Velcade (MTT cell viability)
# Type: cell-based
# Procedure: RPMI 8226 cells were seeded in 96-well U-bottom plate at 3×10^5 cells/ml in 180 μl per well, and 20 μl of test material was added to the plate. The cells were incubated in a 37° C. humidified 5% CO2 incubator for 48 hours, and each 20 μl of 5 mg/ml 2-(4,5-dimethylthiazol-2-yl)-2,5-diphenyltetrazolium bromide (MTT) solution dissolved in PBS was added and incubated again for 4 hours. After the formation of formazan, the medium was completely removed, 200 μl of DMSO was added, and then the absorbance was measured using a microplate reader at 570 nm.
# For the quantitative analysis of drug interaction between the novel urea compounds of the present invention and Velcade (BOZ) well known as a therapeutic agent for multiple myeloma, the combination index (CI) of cell fractions on cytotoxicity caused by the drugs was calculated based on the dose-response curve of single and combination treatments. For the analysis of the interaction between two drugs, the CI was measured using Compusyn software (Combosyn Inc.) according to the method of Chou and Talalay (CompuSyn by Ting-Chao Chou and Nick Martin, 2005). The CI is the dose ratio of two anticancer agents treated with the dose of two anticancers at the point representing the equivalent cytotoxic effects. CI<1, CI=1, and CI>1 are interpreted as synergism, additivity, and antagonism, respectively.
# [1] = Compound 255 0.25 μM + BOZ (Velcade) 2.5 nM
# [2] = Compound 255 0.25 μM + BOZ (Velcade) 5.0 nM
# [3] = Compound 255 0.25 μM + BOZ (Velcade) 10.0 nM
# [4] = Compound 255 0.5 μM + BOZ (Velcade) 2.5 nM
# [5] = Compound 255 0.5 μM + BOZ (Velcade) 5.0 nM
# [6] = Compound 255 0.5 μM + BOZ (Velcade) 10.0 nM
# [7] = Compound 255 1.0 μM + BOZ (Velcade) 2.5 nM
# [8] = Compound 255 1.0 μM + BOZ (Velcade) 5.0 nM
# [9] = Compound 255 1.0 μM + BOZ (Velcade) 10.0 nM
structure (smiles),measurement,setting,value
"O=C(NO)c1ccc(CN(C(=O)N2CCOCC2)c2cccc(Br)c2)cc1 [Compound 255, N-(3-bromophenyl)-N-(4-(hydroxycarbamoyl)benzyl)morpholine-4-carboxamide]",CI (1),[1],1.182
same,CI (2),[1],1.034
same,CI (3),[1],1.068
same,CI (1),[2],0.560
same,CI (2),[2],0.710
same,CI (3),[2],0.737
same,CI (1),[3],0.482
same,CI (2),[3],0.309
same,CI (3),[3],0.417
same,CI (1),[4],1.120
same,CI (2),[4],1.115
same,CI (3),[4],1.087
same,CI (1),[5],0.751
same,CI (2),[5],0.789
same,CI (3),[5],0.727
same,CI (1),[6],0.491
same,CI (2),[6],0.529
same,CI (3),[6],0.428
same,CI (1),[7],0.940
same,CI (2),[7],1.146
same,CI (3),[7],0.998
same,CI (1),[8],0.469
same,CI (2),[8],0.679
same,CI (3),[8],0.475
same,CI (1),[9],0.416
same,CI (2),[9],0.518
same,CI (3),[9],0.417
same,combination effect with Velcade (BOZ),judged by the combination index,combination effect is excellent
